Reference: ChEMBL document CHEMBL5247589, “Natural occurrence, bioactivity, and biosynthesis of triene-ansamycins” (Eur J Med Chem, 2022)
Values after ≈ are worked out from the molar mass of the structure shown.

Experiments:
[1] = test system: PANC-1; assay: Antitumor activity against human PANC-1; format: functional, cell-based; details: pooled result: one value given for 3 cell lines, strains, targets or settings
[2] = test system: PANC-1; assay: Antitumor activity against human PANC-1 cells incubated for 48 to 72 hrs by MTS Assay; format: functional, cell-based
[3] = test system: PC-3; assay: Antitumor activity against human PC-3 cells incubated for 72 hrs by SRB calorimetric assay; format: functional, cell-based; details: PC-3, 72 h
[4] = test system: BXPC-3; assay: Antitumor activity against human BXPC-3 cells incubated for 48 to 72 hrs by MTS Assay; format: functional, cell-based
[5] = test system: Capan-2; assay: Antitumor activity against human Capan-2 cells incubated for 48 to 72 hrs by MTS Assay; format: functional, cell-based
[6] = test system: L5178Y; assay: Cytotoxicity against mouse L5178Y; format: toxicity, cell-based
[7] = test system: PANC-1; assay: Antitumor activity against human PANC-1 cells assessed as cell growth inhibition incubated for 48 hrs by CCK-8 assay; format: functional, cell-based; details: PANC-1, 48 h
[8] = test system: SW1990; assay: Antitumor activity against human SW1990 cells assessed as cell growth inhibition incubated for 48 hrs by CCK-8 assay; format: functional, cell-based; details: SW1990, 48 h
[9] = test system: HeLa; assay: Antitumor activity against human HeLa cells assessed as cell growth inhibition incubated for 3 days; format: functional, cell-based; details: 72 h
[10] = test system: MCF7; assay: Antitumor activity against human MCF7 cells assessed as cell growth inhibition incubated for 3 days; format: functional, cell-based; details: MCF7, 72 h
[11] = test system: C-33-A; assay: Antitumor activity against human C33A cells assessed as cell growth inhibition incubated for 3 days; format: functional, cell-based; details: 72 h
[12] = test system: COLO 201; assay: Antitumor activity against human COL0201 cells assessed as cell growth inhibition incubated for 3 days; format: functional, cell-based; details: COLO 201, 72 h
[13] = test system: HeLa; assay: Antiproliferative activity against human HeLa cells incubated for 72 hrs by absorbance based assay; format: functional, cell-based
[14] = test system: NCI-H1299; assay: Antiproliferative activity against human H1299 cells incubated for 72 hrs by absorbance based assay; format: functional, cell-based; details: NCI-H1299, 72 h
[15] = test system: MCF7; assay: Antitumor activity against human MCF-7 incubated for 48 hrs by MTT assay; format: functional, cell-based; details: MCF7, 48 h
[16] = test system: HepG2; assay: Antitumor activity against human HepG2 incubated for 48 hrs by MTT assay; format: functional, cell-based; details: HepG2, 48 h
[17] = test system: HeLa; assay: Antitumor activity against human HeLa cells assessed as cell growth inhibition incubated for 72 hrs by MTT assay; format: functional, cell-based

Compound `CO[C@H]1/C=C/C=C/C=C/C[C@H](OC(=O)[C@@H](C)NC(=O)C2=CCCCC2)[C@H](C)[C@@H](O)/C(C)=C\CCc2cc(O)cc(c2)NC(=O)C1` has an IC50 [1] of 0.035 µM.
Work on `CO[C@H]1/C=C/C=C/C=C/C[C@H](OC(=O)[C@@H](C)NC(=O)CCCC(C)C)[C@H](C)[C@@H](O)/C(C)=C\CCc2cc(O)cc(c2)NC(=O)C1` yielded an IC50 [2] of 0.1 µM, an IC50 [3] of 0.1 µM and an IC50 [4] of 0.1 µM. It also gave an IC50 [5] of 0.1 µM.
With `CO[C@H]1/C=C/C=C/C=C/C[C@H](OC(=O)[C@@H](C)NC(=O)CC(C)C)[C@H](C)[C@@H](O)/C(C)=C\CCc2cc(O)cc(c2)NC(=O)C1` the IC50 [1] was 0.17 µM.
With `CO[C@H]1/C=C/C=C/C=C/C[C@H](OC(=O)[C@@H](C)NC(=O)CCC(C)C)[C@H](C)[C@@H](O)/C(C)=C\CCc2cc(O)cc(c2)NC(=O)C1` the IC50 [1] was 0.17 µM.
Work on `CO[C@H]1/C=C/C=C/C=C/C[C@H](OC(=O)[C@@H](C)NC(=O)C2CCCCC2)[C@H](C)[C@@H](O)/C(C)=C\CCc2cc(O[C@@H]3O[C@H](CO)[C@@H](O)[C@H](O)[C@H]3O)cc(c2O)NC(=O)C1` yielded an MIC [6] of 1 µM (≈ 0.801 µg/mL).
`CO[C@@H]1CC(=O)N2c3cc(O)cc4c3O[C@@H](/C=C/C=C/C[C@H](OC(=O)[C@@H](C)NC(=O)C3CCCCC3)[C@H](C)[C@@H](O)/C(C)=C\CC4)[C@H]12` was tested, and the IC50 [7] was 8.29 µM and the IC50 [8] was 8.29 µM.
Work on `CO[C@H]1/C=C/C=C/C=C/C[C@H](OC(=O)[C@@H](C)NC(=O)C2CCCCC2)[C@H](C)[C@@H](O)/C(C)=C\CCc2cc3c(c(c2O)NC(=O)C1)SCC(=O)N3` yielded an IC50 [9] of 0.00085 µM, an IC50 [10] of 0.00085 µM and an IC50 [11] of 0.00085 µM. The IC50 [12] was 0.00085 µM.
Compound `CO[C@@H]1CC(=O)Nc2c(O)c3cc4c2[C@H](/C=C/C=C/C[C@H](O)[C@H](C)[C@@H](OC(=O)[C@@H](C)NC(=O)C2CCCCC2)/C(C)=C\CC3)[C@H]1O4` has an IC50 [7] of 7.79 µM and an IC50 [8] of 7.79 µM.
Compound `C/C=C(\C)C(=O)N[C@H](C)C(=O)O[C@H]1C/C=C/C=C/C=C/[C@H](OC)CC(=O)Nc2cc(O)cc(c2)CC/C=C(/C)[C@H](O)[C@H]1C` has an IC50 [2] of at least 10 µM, an IC50 [4] of at least 10 µM and an IC50 [5] of at least 10 µM.
In the case of `C[C@@H]1[C@@H](O)[C@H](C)[C@@H](O)CCc2cc(O)cc(c2)NC(=O)C[C@@H](O)/C=C/C=C/C=C/C[C@@H]1O`, the IC50 [13] is reported as 10 µM and the IC50 [14] is reported as over 10 µM.
Work on `CO[C@@H]1CC(=O)Nc2c(O)c3cc4c2[C@@H](/C=C/C=C/C[C@H](OC(=O)[C@@H](C)NC(=O)C2CCCCC2)[C@H](C)[C@@H](O)/C(C)=C\CC3)[C@@H]1O4` yielded an IC50 [7] of 5.81 µM and an IC50 [8] of 5.81 µM.
With `CO[C@@H]1CC(=O)N2c3cc(O)cc4c3O[C@H](/C=C/C=C/C[C@H](O)[C@H](C)[C@@H](O)/C(C)=C\CC4)[C@H]12` the IC50 [13] was 10 µM and the IC50 [14] was over 10 µM.
For `COc1cc2c(O)c(c1)NC(=O)C[C@@H](OC)/C=C/C=C/C=C/C[C@H](OC(=O)[C@@H](C)NC(=O)C1CCCCC1)[C@H](C)[C@@H](O)/C(C)=C\CC2`, the MIC [6] was 0.17 µM (≈ 0.111 µg/mL).
For `CO[C@H]1/C=C/C=C/C=C/C[C@H](O)[C@H](C)[C@@H](O)/C(C)=C\CCc2c(O)c(cc3ncsc23)NC(=O)C1`, the IC50 [13] was 10 µM and the IC50 [14] was over 10 µM.
Work on `CO[C@@H]1CC(=O)N2c3cc(O)cc4c3O[C@@H](/C=C/C=C/C[C@H](O)[C@H](C)[C@@H](O)/C(C)=C\CC4)[C@@H]12` yielded an IC50 [13] of 10 µM and an IC50 [14] of over 10 µM.
For `CO[C@H]1/C=C/C=C/C=C/C[C@H](OC(=O)[C@@H](C)NC(=O)C2=CCCCC2)[C@H](C)[C@@H](O)/C(C)=C\CCc2cc3c(c(c2O)NC(=O)C1)SCC(=O)N3`, the IC50 [9] was 0.0031 µM, the IC50 [10] was 0.0031 µM and the IC50 [11] was 0.0031 µM. It also gave an IC50 [12] of 0.0031 µM.
Work on `CO[C@@H]1CC(=O)Nc2c(O)c3cc4c2[C@H](/C=C/C=C/C[C@H](OC(=O)[C@@H](C)NC(=O)C2CCCCC2)[C@H](C)[C@@H](O)/C(C)=C\CC3)[C@H]1O4` yielded an IC50 [7] of 3.99 µM and an IC50 [8] of 3.99 µM.
`CO[C@H]1/C=C/C=C/C=C/C[C@H](OC(=O)[C@@H](C)NC(=O)C2=CCCC2)[C@H](C)[C@@H](O)/C(C)=C\CCc2cc(O)cc(c2)NC(=O)C1` was tested, and the IC50 [15] was 6.74 µM and the IC50 [16] was 6.74 µM.
Compound `CO[C@H]1/C=C/C=C/C=C/C[C@H](OC(=O)[C@@H](C)NC(=O)C2CCCCC2)[C@H](C)C(=O)/C(C)=C\CCc2cc(O)cc(c2O)NC(=O)C1` has an IC50 [17] of over 10 µM.
`CO[C@H]1/C=C/C=C/C=C/C[C@H](OC(=O)[C@@H](C)NC(=O)CC(C)C)[C@H](C)[C@@H](O)/C(C)=C\CCc2c(O)c(cc3c2SCC(=O)N3)NC(=O)C1` gave an IC50 [9] of 0.15 µM, an IC50 [10] of 0.15 µM and an IC50 [11] of 0.15 µM. The IC50 [12] was 0.15 µM.
With `CO[C@H]1/C=C/C=C/C=C/C[C@H](OC(=O)[C@@H](C)NC(=O)C2CCC2)[C@H](C)[C@@H](O)/C(C)=C\CCc2cc(O)cc(c2)NC(=O)C1` the IC50 [15] was 7.33 µM and the IC50 [16] was 7.33 µM.
`CO[C@@H]1CC(=O)Nc2c(O)c3cc4c2[C@H](/C=C/C=C/C[C@H](OC(=O)[C@@H](C)NC(=O)CC(C)C)[C@H](C)[C@@H](O)/C(C)=C\CC3)[C@H]1O4` gave an IC50 [7] of over 10 µM and an IC50 [8] of over 10 µM.
